Experimental data reported in PubChem BioAssay (NCI).
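A five-concentration, 48-hour dose response in 96-well plates underlies each endpoint, interpolated linearly between surrounding concentrations. Here, GI50 denotes the concentration required for 50% inhibition of growth. TGI: concentration producing complete growth inhibition.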

Legend:
Experiment in all cases: NCI anticancer screen, dose series, 48 h
HOP-92 NSCLC = tested on: HOP-92 NSCLC
TK-10 renal = tested on: TK-10 renal
MOLT-4 leukemia = tested on: MOLT-4 leukemia
CAKI-1 renal = tested on: CAKI-1 renal
A498 renal = tested on: A498 renal
K-562 leukemia = tested on: K-562 leukemia
CCRF-CEM leukemia = tested on: CCRF-CEM leukemia
RXF 393 renal = tested on: RXF 393 renal
SF-539 CNS = tested on: SF-539 CNS
OVCAR-5 ovarian = tested on: OVCAR-5 ovarian

Brc1ccc2c(-c3nc(-c4c[nH]c5ccccc45)cs3)c[nH]c2c1
TGI (HOP-92 NSCLC): > 100 µM | TGI (TK-10 renal): 45.8 µM | TGI (MOLT-4 leukemia): > 87 µM | TGI (CAKI-1 renal): > 100 µM | TGI (A498 renal): > 92.3 µM | TGI (K-562 leukemia): > 100 µM | TGI (CCRF-CEM leukemia): > 100 µM | TGI (RXF 393 renal): > 68.7 µM | TGI (SF-539 CNS): 69.5 µM | TGI (OVCAR-5 ovarian): > 100 µM

CCN(CC)CCCCCCCCNc1c2ccc(Cl)cc2nc2ccc(OC)cc12
GI50 (HOP-92 NSCLC): 1.39 µM | TGI (HOP-92 NSCLC): 3.31 µM | GI50 (TK-10 renal): 1.83 µM | TGI (TK-10 renal): 4.24 µM | GI50 (MOLT-4 leukemia): 0.951 µM | TGI (MOLT-4 leukemia): 4.68 µM | GI50 (CAKI-1 renal): 2.37 µM | TGI (CAKI-1 renal): 6.67 µM | GI50 (A498 renal): 1.41 µM | TGI (A498 renal): 2.78 µM | GI50 (K-562 leukemia): 0.376 µM | TGI (K-562 leukemia): 2.23 µM | GI50 (CCRF-CEM leukemia): 0.634 µM | TGI (CCRF-CEM leukemia): 6.32 µM | GI50 (RXF 393 renal): 0.763 µM | TGI (RXF 393 renal): 2.09 µM | GI50 (SF-539 CNS): 1.42 µM | TGI (SF-539 CNS): 2.87 µM | GI50 (OVCAR-5 ovarian): 1.64 µM | TGI (OVCAR-5 ovarian): 3.99 µM

COc1c2occc2c(OC)c2c(=O)c(S(=O)(=O)NC(=O)Nc3ccc(Cl)cc3)coc12
TGI (HOP-92 NSCLC): > 10 µM | TGI (TK-10 renal): > 10 µM | TGI (MOLT-4 leukemia): > 10 µM | TGI (CAKI-1 renal): > 10 µM | TGI (A498 renal): > 10 µM | TGI (K-562 leukemia): > 10 µM | TGI (CCRF-CEM leukemia): > 10 µM | TGI (RXF 393 renal): > 10 µM | TGI (SF-539 CNS): > 10 µM | TGI (OVCAR-5 ovarian): > 10 µM

COc1cc2c(cc1OCCCC(=O)Nc1cc(C(=O)Nc3cc(C(=O)Nc4cc(C(=O)NCCCN(C)C)n(C)c4)n(C)c3)n(C)c1)N=C[C@@H]1CCCN1C2=O
TGI (HOP-92 NSCLC): 3.38 µM | TGI (TK-10 renal): 3.49 µM | TGI (MOLT-4 leukemia): > 100 µM | TGI (CAKI-1 renal): 1.26 µM | TGI (A498 renal): 26.4 µM | TGI (K-562 leukemia): > 100 µM | TGI (CCRF-CEM leukemia): > 100 µM | TGI (RXF 393 renal): 3.15 µM | TGI (SF-539 CNS): 8.72 µM | TGI (OVCAR-5 ovarian): 9.38 µM

C=CCNC1=C2C[C@@H](C)C[C@@H](OC)C(OC(=O)CCCN(C)C)[C@H](C)/C=C(\C)[C@@H](OC(N)=O)[C@H](OC)/C=C\C=C(/C)C(=O)NC(=CC1=O)C2=O (stereo not given in full)
TGI (HOP-92 NSCLC): 34.9 µM | TGI (TK-10 renal): 25.1 µM | TGI (MOLT-4 leukemia): 39.1 µM | TGI (CAKI-1 renal): 25.2 µM | TGI (A498 renal): 26.9 µM | TGI (K-562 leukemia): > 100 µM | TGI (CCRF-CEM leukemia): 31.3 µM | TGI (RXF 393 renal): 18.6 µM | TGI (SF-539 CNS): 19.3 µM | TGI (OVCAR-5 ovarian): 28.5 µM

CCSSCS(C)(=O)=O
TGI (HOP-92 NSCLC): 73.5 µM | TGI (TK-10 renal): > 100 µM | TGI (MOLT-4 leukemia): > 100 µM | TGI (CAKI-1 renal): > 100 µM | TGI (A498 renal): 96.2 µM | TGI (K-562 leukemia): 27.2 µM | TGI (CCRF-CEM leukemia): > 100 µM | TGI (RXF 393 renal): 49.5 µM | TGI (SF-539 CNS): 29.5 µM | TGI (OVCAR-5 ovarian): > 100 µM

CO/C(=N\N=C\c1ccc(Cl)cc1)c1ccncc1
TGI (HOP-92 NSCLC): > 100 µM | TGI (TK-10 renal): > 100 µM | TGI (MOLT-4 leukemia): > 100 µM | TGI (CAKI-1 renal): > 100 µM | TGI (A498 renal): > 100 µM | TGI (K-562 leukemia): > 100 µM | TGI (CCRF-CEM leukemia): > 100 µM | TGI (RXF 393 renal): > 100 µM | TGI (SF-539 CNS): > 100 µM | TGI (OVCAR-5 ovarian): > 100 µM

O=C(CCc1cccc(O)c1)NCCc1cccc(O)c1
TGI (HOP-92 NSCLC): > 100 µM | TGI (TK-10 renal): > 100 µM | TGI (MOLT-4 leukemia): > 100 µM | TGI (CAKI-1 renal): > 100 µM | TGI (A498 renal): > 100 µM | TGI (K-562 leukemia): > 100 µM | TGI (CCRF-CEM leukemia): > 100 µM | TGI (RXF 393 renal): > 100 µM | TGI (SF-539 CNS): > 100 µM | TGI (OVCAR-5 ovarian): > 100 µM

CSc1nc2ccccc2c(=O)n1/N=C1\C(=O)N(CN2CCOCC2)c2ccc(Cl)cc21
TGI (HOP-92 NSCLC): > 100 µM | TGI (TK-10 renal): 71.4 µM | TGI (MOLT-4 leukemia): 42.8 µM | TGI (CAKI-1 renal): > 100 µM | TGI (A498 renal): > 100 µM | TGI (K-562 leukemia): > 100 µM | TGI (CCRF-CEM leukemia): > 100 µM | TGI (RXF 393 renal): 44.8 µM | TGI (SF-539 CNS): 75.6 µM | TGI (OVCAR-5 ovarian): > 100 µM

Oc1nc(N/N=C/c2c[nH]c3ccccc23)[nH]c1/C=C1\C=Nc2ccccc21
TGI (HOP-92 NSCLC): 36.9 µM | TGI (TK-10 renal): > 100 µM | TGI (MOLT-4 leukemia): 22.3 µM | TGI (CAKI-1 renal): > 100 µM | TGI (A498 renal): 27.8 µM | TGI (K-562 leukemia): 27.8 µM | TGI (CCRF-CEM leukemia): 25.3 µM | TGI (RXF 393 renal): > 100 µM | TGI (SF-539 CNS): 48.4 µM | TGI (OVCAR-5 ovarian): > 100 µM

CC(=O)N1N=C(c2c(O)ccc3ccccc23)CC1C(=O)c1ccco1 (stereo not given)
TGI (HOP-92 NSCLC): > 100 µM | TGI (TK-10 renal): > 100 µM | TGI (MOLT-4 leukemia): 60.1 µM | TGI (CAKI-1 renal): > 100 µM | TGI (A498 renal): > 100 µM | TGI (K-562 leukemia): 49.2 µM | TGI (CCRF-CEM leukemia): 57 µM | TGI (RXF 393 renal): > 100 µM | TGI (SF-539 CNS): 66.9 µM | TGI (OVCAR-5 ovarian): > 100 µM

COCn1c(C)c(C)c2c(=O)oc(=O)[nH]c21
TGI (HOP-92 NSCLC): > 100 µM | TGI (TK-10 renal): > 100 µM | TGI (MOLT-4 leukemia): > 100 µM | TGI (CAKI-1 renal): > 100 µM | TGI (A498 renal): > 100 µM | TGI (K-562 leukemia): > 100 µM | TGI (CCRF-CEM leukemia): > 100 µM | TGI (RXF 393 renal): > 100 µM | TGI (SF-539 CNS): > 100 µM | TGI (OVCAR-5 ovarian): > 100 µM

CC/C(Cl)=N\OC(=O)Nc1ccc(OC)cc1
TGI (HOP-92 NSCLC): 5.98 µM | TGI (TK-10 renal): 18.2 µM | TGI (MOLT-4 leukemia): 5.59 µM | TGI (CAKI-1 renal): 3.07 µM | TGI (A498 renal): 37 µM | TGI (K-562 leukemia): > 100 µM | TGI (CCRF-CEM leukemia): 4.97 µM | TGI (RXF 393 renal): 6.52 µM | TGI (SF-539 CNS): 9.51 µM | TGI (OVCAR-5 ovarian): 11.3 µM

CC1(C)O[C@H](C(=O)O)[C@@H](C(=O)O)O1
TGI (HOP-92 NSCLC): > 100 µM | TGI (TK-10 renal): > 100 µM | TGI (MOLT-4 leukemia): > 100 µM | TGI (CAKI-1 renal): > 100 µM | TGI (A498 renal): > 100 µM | TGI (K-562 leukemia): > 100 µM | TGI (CCRF-CEM leukemia): > 100 µM | TGI (RXF 393 renal): > 100 µM | TGI (SF-539 CNS): > 100 µM | TGI (OVCAR-5 ovarian): > 100 µM

NNC(=O)CC(=O)Nc1ccc(Cl)cc1
TGI (HOP-92 NSCLC): > 100 µM | TGI (TK-10 renal): > 100 µM | TGI (MOLT-4 leukemia): > 100 µM | TGI (CAKI-1 renal): > 100 µM | TGI (A498 renal): > 100 µM | TGI (K-562 leukemia): > 100 µM | TGI (CCRF-CEM leukemia): > 100 µM | TGI (RXF 393 renal): > 100 µM | TGI (SF-539 CNS): > 100 µM | TGI (OVCAR-5 ovarian): > 100 µM

COc1cc(/C=C2\C[C@H]3[C@@H]4CC=C5C[C@@H](N6CCCC6)CC[C@]5(C)[C@H]4CC[C@]3(C)[C@H]2O)cc(OC)c1OC
TGI (HOP-92 NSCLC): 25 µM | TGI (TK-10 renal): 34.6 µM | TGI (MOLT-4 leukemia): > 56.2 µM | TGI (CAKI-1 renal): 29.8 µM | TGI (A498 renal): 30.2 µM | TGI (K-562 leukemia): > 100 µM | TGI (CCRF-CEM leukemia): > 100 µM | TGI (RXF 393 renal): 20.2 µM | TGI (SF-539 CNS): 32.2 µM | TGI (OVCAR-5 ovarian): 24.4 µM
